Structures are written as SMILES.

Chain of S. aureus (SAU) GyrB ATPase (P0A0K8 whole entry): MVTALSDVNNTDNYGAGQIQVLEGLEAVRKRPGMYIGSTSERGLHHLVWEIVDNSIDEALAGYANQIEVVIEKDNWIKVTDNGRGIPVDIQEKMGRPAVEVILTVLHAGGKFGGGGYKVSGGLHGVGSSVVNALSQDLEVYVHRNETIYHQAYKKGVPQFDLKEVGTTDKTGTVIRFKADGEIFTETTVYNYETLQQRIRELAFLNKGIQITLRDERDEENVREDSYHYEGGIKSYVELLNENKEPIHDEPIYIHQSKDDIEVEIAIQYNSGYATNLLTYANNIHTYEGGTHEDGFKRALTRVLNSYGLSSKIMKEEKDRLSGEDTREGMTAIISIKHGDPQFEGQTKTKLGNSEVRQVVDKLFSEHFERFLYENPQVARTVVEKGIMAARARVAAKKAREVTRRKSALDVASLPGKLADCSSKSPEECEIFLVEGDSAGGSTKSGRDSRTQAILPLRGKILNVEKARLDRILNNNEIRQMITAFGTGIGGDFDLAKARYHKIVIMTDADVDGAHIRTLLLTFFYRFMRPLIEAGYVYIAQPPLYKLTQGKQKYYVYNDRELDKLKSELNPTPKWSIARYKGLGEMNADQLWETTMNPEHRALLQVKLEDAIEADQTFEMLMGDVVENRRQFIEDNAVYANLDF
Chain of S. aureus (SAU) GyrB ATPase (P0AES4 whole entry, further chain): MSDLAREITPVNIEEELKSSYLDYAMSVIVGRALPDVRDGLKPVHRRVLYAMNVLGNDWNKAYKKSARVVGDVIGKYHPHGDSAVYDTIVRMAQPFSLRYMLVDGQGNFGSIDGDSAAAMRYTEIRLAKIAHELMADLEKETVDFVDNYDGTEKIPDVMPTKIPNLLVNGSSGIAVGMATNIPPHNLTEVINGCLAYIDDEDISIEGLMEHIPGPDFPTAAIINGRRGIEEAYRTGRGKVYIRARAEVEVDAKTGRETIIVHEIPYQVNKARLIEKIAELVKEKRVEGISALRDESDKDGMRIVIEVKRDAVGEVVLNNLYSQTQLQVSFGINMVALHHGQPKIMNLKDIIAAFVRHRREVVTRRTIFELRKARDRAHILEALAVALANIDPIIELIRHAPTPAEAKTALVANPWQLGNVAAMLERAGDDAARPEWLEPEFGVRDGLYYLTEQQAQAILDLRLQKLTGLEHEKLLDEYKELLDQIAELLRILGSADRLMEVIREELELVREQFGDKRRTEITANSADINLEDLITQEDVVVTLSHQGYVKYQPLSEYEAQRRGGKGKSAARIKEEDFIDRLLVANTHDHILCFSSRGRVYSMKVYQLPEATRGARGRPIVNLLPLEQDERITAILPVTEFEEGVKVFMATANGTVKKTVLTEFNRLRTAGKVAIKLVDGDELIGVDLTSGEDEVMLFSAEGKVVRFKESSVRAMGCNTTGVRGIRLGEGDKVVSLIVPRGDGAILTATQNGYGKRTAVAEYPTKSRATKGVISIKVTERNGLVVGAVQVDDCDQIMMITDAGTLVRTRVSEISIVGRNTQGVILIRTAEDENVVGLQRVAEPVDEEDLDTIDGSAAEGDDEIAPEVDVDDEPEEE

One assay has as its target S. aureus (SAU) GyrB ATPase (Staphylococcus aureus, UniProt P0A0K8). Kind of assay: S. aureus GyrB ATPase inhibition, ammonium molybdate/malachite green phosphate detection assay. Conditions: compound concentration 5 μM (values marked *). The class given is biochemical. The protocol:
Compounds were tested for inhibition of GyrB ATPase activity using an ammonium molybdate/malachite green-based phosphate detection assay (Lanzetta, P. A., L. J. Alvarez, P. S. Reinach, and O. A. Candia, 1979, 100: 95-97). Assays were performed in multiwell plates in 100 μl reactions containing: 50 mM Hepes buffer pH 7.5, 75 mM ammonium acetate, 8.0 mM magnesium chloride, 1.0 mM ethylenediaminetetraacetic acid, 5% glycerol, 2 mM 1,4-Dithio-DL-threitol, 400 nM bovine serum albumin, 5 μg/ml sheared salmon sperm DNA, 1.25 nM E. coli GyrA, 1.25 nM S. aureus GyrB, 500 μM ATP, and compound in dimethylsulfoxide. Reactions were quenched with 150 μl of ammonium molybdate/malachite green detection reagent containing 1.2 mM malachite green hydrochloride, 8.5 mM ammonium molybdate tetrahydrate, and 1 M hydrochloric acid. Plates were read in an absorbance plate reader at 650 nm and percent inhibition values were calculated using dimethylsulfoxide (2%)-containing reactions as 0% inhibition and novobiocin-containing (2 μM) reactions as 100% inhibition controls. Compound potency was based on IC50 measurements determined from reactions performed in the presence of 10 different compound concentrations.
Consider `CCNC(=O)Nc1ncc(-c2ncc(C(=O)OC)s2)cn1` [Example 14, Methyl 2-(2-{[(ethylamino)carbonyl]amino}pyrimidin-5-yl)-1,3-thiazole-5-carboxylate], for which the inhibition at 5 µM came to 99.5%.

Staying with this assay, now noted: read-out: S. aureus (SAU) GyrB ATPase % Inhibition, compound concentration 12.5 μM.
As to `CCCCNC(=O)c1nc(-c2cnc(NC(=O)NCC)cc2-c2nc(CC)cs2)sc1C(=O)O` [Example 150, 4-[(butylamino)carbonyl]-2-[6-{[(ethylamino)carbonyl]amino}-4-(4-ethyl-1,3-thiazol-2-yl)pyridin-3-yl]-1,3-thiazole-5-carboxylic acid], the inhibition at 12.5 µM is 100%.
Same read-out and setting: then `CCNC(=O)Nc1ccc(-c2ccc3c(c2)c(=O)c(C(=O)O)cn3CCOC)cn1` [Example 46, 6-(6-(3-Ethylureido)pyridin-3-yl)-1-(2-methoxyethyl)-4-oxo-1,4-dihydroquinoline-3-carboxylic acid], with 83.4%; and `CCNC(=O)Nc1ccc(-c2ccc(C(=O)OC)cc2)cn1` [Example 7, Methyl 4-(6-{[(ethylamino)carbonyl]amino}pyridin-3-yl)benzoate], with 97.4%.
The same measure, in the same setting: then `CCNC(=O)Nc1ncc(-c2nc3cccc(C(=O)OCC)c3s2)cn1` [Example 135, ethyl 2-(2-{[(ethylamino)carbonyl]amino}pyrimidin-5-yl)-1,3-benzothiazole-7-carboxylate], with 0.52%; and `CCCCNC(=O)c1nc(-c2cnc(NC(=O)NCC)cc2-c2nc(CC)cs2)sc1C(=O)N(C)C` [Example 162, N^4-butyl-2-[6-{[(ethylamino)carbonyl]amino}-4-(4-ethyl-1,3-thiazol-2-yl)pyridin-3-yl]-N~5~,N~5~-dimethyl-1,3-thiazole-4,5-dicarboxamide], with 101%; and `CCNC(=O)Nc1cc(-c2nc(CC)cs2)c(-c2cccc(C(=O)O)c2)cn1` [Example 100, 3-[6-{[(Ethylamino)carbonyl]amino}-4-(4-ethyl-1,3-thiazol-2-yl)pyridin-3-yl]benzoic acid], with 99.7%.
Still for that read-out and setting: as for `CCNC(=O)Nc1ccc(-c2nc(-c3ncnn3C)c(C(=O)N(C)C)s2)cn1` [Example 113, 2-(6-{[(Ethylamino)carbonyl]amino}pyridin-3-yl)-N,N-dimethyl-4-(1-methyl-1H-1,2,4-triazol-5-yl)-1,3-thiazole-5-carboxamide], the figure is 102%.
On to `CCNC(=O)Nc1ncc(-c2ncc(C(=O)O)s2)cn1` [Example 30, 2-(2-{[(Ethylamino)carbonyl]amino}pyrimidin-5-yl)-1,3-thiazole-5-carboxylic acid], for which the inhibition at 12.5 µM turned out to be 62.9%.
Same read-out and setting: as for `CCNC(=O)Nc1ccc(-c2nc(C(=O)NC(C)C)c(C(=O)N(C)C)s2)cn1` [Example 67], the figure is 92.5%; as for `CC(C)NC(=O)Nc1cc(-c2nc(C(F)(F)F)cs2)c(-c2cncc(C(=O)O)c2)cn1` [Example 105, 6′-{[(Isopropylamino)arbonyl]amino}-4′-[4-(trifluoromethyl)-1,3-thiazol-2-yl]-3,3′-bipyridine-5-carboxylic acid], 94.8%.
On the same count and under the same terms, then `CCNC(=O)Nc1ccc(-c2nc(C(=O)NCCOC)c(C(=O)O)s2)cn1` [Example 91, 2-(6-{[(Ethylamino)carbonyl]amino}pyridin-3-yl)-4-{[(2-methoxyethyl)amino]carbonyl}-1,3-thiazole-5-carboxylic acid], with 101%; and `CCNC(=O)Nc1cc(-c2nc(C(F)(F)F)cs2)c(-c2cncc(C(=O)NC3CCCC3)c2)cn1` [Example 125, N-Cyclopentyl-6′-{[(ethylamino)carbonyl]amino}-4′-[4-(trifluoromethyl)-1,3-thiazol-2-yl]-3,3′-bipyridine-5-carboxamide], with 107%; and `CCNC(=O)Nc1nc(-c2ccc(C(=O)O)cc2)cs1` [Example 33, 4-(2-{[(Ethylamino)carbonyl]amino}-1,3-thiazol-4-yl)benzoic acid], with 38.2%.
Same read-out and setting: then `CCCCNC(=O)c1sc(-c2ccc(NC(=O)NCC)nc2)nc1C(=O)N(C)C` [Example 158, N^5-butyl-2-(6-{[(ethylamino)carbonyl]amino}pyridin-3-yl)-N^4,N^4-dimethyl-1,3-thiazole-4,5-dicarboxamide], with 92.6%.
As for `CCNC(=O)Nc1cc(-c2nc(CC)cs2)c(-c2cncc(C(N)=O)c2)cn1` [Example 119, 6′-{[(Ethylamino)carbonyl]amino}-4′-(4-ethyl-1,3-thiazol-2-yl)-3,3′-bipyridine-5-carboxamide], the inhibition at 12.5 µM was 103%.
The same measure, in the same setting: as for `CCNC(=O)Nc1ccc(-c2cccc(C(=O)OC)c2)cn1` [Example 6, Methyl 3-(6-{[(ethylamino)carbonyl]amino}pyridin-3-yl)benzoate], the figure is 99.7%; as for `CCNC(=O)Nc1cccc(-c2ccc(C(=O)O)cc2)n1` [Example 32, 4-(6-{[(Ethylamino)carbonyl]amino}pyridin-2-yl)benzoic acid], 2.66%; as for `CCNC(=O)Nc1cc(-c2nc(C(C)(C)C)cs2)c(-c2cncc(C(=O)NC)c2)cn1` [Example 164, 4′-(4-tert-butyl-1,3-thiazol-2-yl)-6′-{[(ethylamino)carbonyl]amino}-N-methyl-3,3′-bipyridine-5-carboxamide], 88.1%.
The same measure, in the same setting: as for `CCNC(=O)Nc1ccc(-c2cccc3nc(C(=O)OCC)cn23)cn1` [Example 136, ethyl 5-(6-{[(ethylamino)carbonyl]amino}pyridin-3-yl)imidazo[1,2-a]pyridine-2-carboxylate], the figure is 61%.
The same measure, in the same setting: then `CCNC(=O)Nc1cc(-c2cccnc2)c(-c2cncc(C(=O)OCC)c2)cn1` [Example 85, Ethyl 6′-{[(ethylamino)carbonyl]amino}-3,3′:4′,3″-terpyridine-5-carboxylate], with 94.9%; and `CCNC(=O)Nc1cc(-c2nc(C(F)(F)F)cs2)c(-c2cncc(C(=O)OCC)c2)cn1` [Example 83, Ethyl 6′-{[(ethylamino)carbonyl]amino}-4′-[4-(trifluoromethyl)-1,3-thiazol-2-yl]-3,3′-bipyridine-5-carboxylate], with 86.9%; and `CCNC(=O)Nc1cc(-c2ccc(C(=O)O)cc2)ccn1` [Example 144, 4-(2-{[(ethylamino)carbonyl]amino}pyridin-4-yl)benzoic acid], with 38.6%.
With `CCNC(=O)Nc1cccc(-c2cccc(C(=O)O)c2)n1` [Example 31, 3-(6-{[(Ethylamino)carbonyl]amino}pyridin-2-yl)benzoic acid], the inhibition at 12.5 µM was 100%.
Still for that read-out and setting: then `CCCCNC(=O)c1nc(-c2ccc(NC(=O)NCC)nc2)sc1C(=O)OCC` [Example 10, Ethyl 4-[(butylamino)carbonyl]-2-(6-{[(ethylamino)carbonyl]amino}pyridin-3-yl)-1,3-thiazole-5-carboxylate], with 92.6%.
Turning to `CCNC(=O)Nc1cc(-c2cncc(F)c2)c(-c2cncc(C(=O)NC)c2)cn1` [Example 70, 6′-{[(ethylamino)carbonyl]amino}-5″-fluoro-N-methyl-3,3′:4′,3″-terpyridine-5-carboxamide], the inhibition at 12.5 µM worked out at 88.2%.
The same measure, in the same setting: as for `CCNC(=O)Nc1ccc(-c2nc(C(C)=O)c(C(=O)O)s2)cn1` [Example 27, 4-Acetyl-2-(6-{[(ethylamino)carbonyl]amino}pyridin-3-yl)-1,3-thiazole-5-carboxylic acid], the figure is 99.1%.

For the origin of these results see patent US7674801B2 (AstraZeneca AB, priority 2006, dated 2010).
